Test results reported in patent US12410207B2, “Galactoside inhibitor of galectins” (GALECTO BIOTECH AB, priority 2019, dated 2025).

How the values were obtained:
Galectin-1 = Galectin-1 (Homo sapiens, UniProt P09382); test: Fluorescence anisotropy assay, inhibition of galectin / fluorescein tagged saccharide probe interaction; details: compound as inhibitor of probe binding
Description: (§1) The affinity of Example 1-45 for galectins were determined by a fluorescence anisotropy assay where the compound was used as an inhibitor of the interaction between galectin and a fluorescein tagged saccharide probe as described Sörme, P., Kahl-Knutsson, B., Huflejt, M., Nilsson, U. J., and Leffler H. (2004) Fluorescence polarization as an analytical tool to evaluate galectin-ligand interactions. Anal. Biochem. 334: 36-47, (Sorme et al., 2004) and Monovalent interactions of Galectin-1 By Salomonsson, Emma; Larumbe, Amaia; Tejler, Johan; Tullberg, Erik; Rydberg, Hanna; Sundin, Anders; Khabut, Areej; Frejd, Torbjorn; Lobsanov, Yuri D.; Rini, James M.; et al, From Biochemistry (2010), 49(44), 9518-9532, (Salomonsson et al., 2010).

Galectin-3 = Galectin-3 (Homo sapiens, UniProt P17931); test: as above; details: compound as inhibitor of probe binding
Description: as §1

MDCK-MDR1 = MDCK-MDR1 in vitro cell model of passage over Blood Brain Barrier; assay type: in vitro ADME; details: MDCK-MDR1, result in words
MDR1 = test: as above; assay type: in vitro ADME; details: dog
[1] = MDCK-MDR1, first column, headed A > B
[2] = MDCK-MDR1, second column, also headed A > B

Chain of Galectin-3 (P17931 whole entry, species assumed): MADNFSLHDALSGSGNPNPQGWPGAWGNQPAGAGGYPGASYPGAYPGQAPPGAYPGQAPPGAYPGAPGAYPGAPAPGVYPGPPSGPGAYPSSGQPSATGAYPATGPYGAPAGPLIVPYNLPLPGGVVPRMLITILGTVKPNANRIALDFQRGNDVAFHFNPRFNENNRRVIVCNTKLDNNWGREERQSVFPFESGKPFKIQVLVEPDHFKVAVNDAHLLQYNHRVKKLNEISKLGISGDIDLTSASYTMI
Chain of Galectin-1 (P09382 whole entry, species assumed): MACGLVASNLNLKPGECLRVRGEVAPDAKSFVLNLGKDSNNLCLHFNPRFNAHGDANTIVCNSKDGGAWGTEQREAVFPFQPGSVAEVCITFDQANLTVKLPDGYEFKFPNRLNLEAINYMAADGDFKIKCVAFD

Kd (Galectin-1) [µM] | Kd (Galectin-3) [µM] | efflux and uptake in in vitro cell model of BBB passage (MDCK-MDR1) | Papp (MDR1; [1]) [×10⁻⁶ cm/s] | Papp (MDR1; [2]) [×10⁻⁶ cm/s] | SMILES
16.5 | 0.023 | low or no efflux and high uptake | 35 | 37 | C#Cc1cncc(S[C@H]2OC(CO)[C@H](O)C(n3cc(-c4cc(F)c(F)c(F)c4)cn3)C2OC)c1 (stereo partly drawn) [Example 34, 5-Ethynylpyridin-3-yl 3-deoxy-3-[4-(3,4,5-trifluorophenyl)-1H-1,2-pyrazol-1-yl]-2-O-methyl-1-thio-α-D-galactopyranoside]
4.8 | 0.011 | low or no efflux and high uptake | 12 | 53 | N#Cc1ncc(Br)cc1S[C@H]1OC(CO)[C@H](O)C(n2cc(-c3cc(F)c(F)c(F)c3)cn2)C1O (stereo partly drawn) [Example 15, 5-Bromo-2-cyanopyridin-3-yl 3-deoxy-3-[4-(3,4,5-trifluorophenyl)-1H-1,2-pyrazol-1-yl]-1-thio-α-D-galactopyranoside]
6.7 | 0.017 | low or no efflux and high uptake | 30 | 33 | COC1C(n2cc(-c3cc(F)c(F)c(F)c3)cn2)[C@@H](O)C(CO)O[C@@H]1Sc1cncc(Cl)c1 (stereo partly drawn) [Example 32, 5-Chloropyridin-3-yl 3-deoxy-3-[4-(3,4,5-trifluorophenyl)-1H-1,2-pyrazol-1-yl]-2-O-methyl-1-thio-α-D-galactopyranoside]
34 | 0.014 |  |  |  | N#Cc1ncc(Cl)cc1S[C@H]1OC(CO)[C@H](O)C(n2cc(-c3cc(F)c(Cl)c(F)c3)cn2)C1O (stereo partly drawn) [Example 13, 5-Chloro-2-cyanopyridin-3-yl 3-[4-(4-chloro-3,5-difluorophenyl)-1H-1,2-pyrazol-1-yl]-3-deoxy-1-thio-α-D-galactopyranoside]
14.8 | 0.025 |  |  |  | OCC1O[C@H](Sc2cncc(Br)c2)C(O)C(n2cc(-c3cc(F)c(F)c(F)c3)cn2)[C@H]1O (stereo partly drawn) [Example 5, 5-Bromopyridin-3-yl 3-deoxy-3-[4-(3,4,5-trifluorophenyl)-1H-1,2-pyrazol-1-yl]-1-thio-α-D-galactopyranoside]
43 | 0.009 |  |  |  | Cc1c(F)cc(-c2cnn(C3C(O)[C@@H](Sc4cncc(Cl)c4)OC(CO)[C@@H]3O)c2)cc1F (stereo partly drawn) [Example 4, 5-Chloropyridin-3-yl 3-deoxy-3-[4-(3,5-difluoro-4-methylphenyl)-1H-1,2-pyrazol-1-yl]-1-thio-α-D-galactopyranoside]
2.1 | 11 |  |  |  | COC1C(n2cc(-c3csc(N)n3)cn2)[C@@H](O)C(CO)O[C@@H]1Sc1ccc(Cl)c(Cl)c1 (stereo partly drawn) [Example 43, 3,4-Dichlorophenyl 3-[4-(2-aminothiazol-4-yl)-1H-1,2-pyrazol-1-yl]-3-deoxy-2-O-methyl-1-thio-α-D-galactopyranoside]
> 100 | 1.2 |  |  |  | OC[C@H]1O[C@H](Sc2ccc(Cl)c(Cl)c2)[C@H](O)[C@@H](c2nnc(-c3cc(F)c(F)c(F)c3)o2)[C@H]1O [Example 41, 3,4-Dichlorophenyl 3-deoxy-3-[5-(3,4,5-trifluorophenyl)-1,3,4-oxadiazol-2-yl]-1-thio-α-D-galactopyranoside]
51 | 0.08 |  |  |  | Cc1cnc(C#N)c(S[C@H]2OC(CO)[C@H](O)C(n3cc(-c4cc(F)c(F)c(F)c4)cn3)C2O)c1 (stereo partly shown) [Example 14]
50 | 0.04 |  |  |  | COC1C(n2cc(-c3cc(F)c(Cl)c(F)c3)cn2)[C@@H](O)C(CO)O[C@@H]1Sc1cc(Cl)ccc1C#N (stereo partly drawn) [Example 44, 5-Chloro-2-cyanophenyl 3-[4-(4-chloro-3,5-difluorophenyl)-1H-1,2-pyrazol-1-yl]-3-deoxy-2-O-methyl-1-thio-α-D-galactopyranoside]
12.7 | 0.021 |  |  |  | C#Cc1cnc(C#N)c(S[C@H]2OC(CO)[C@H](O)C(n3cc(-c4cc(F)c(F)c(F)c4)cn3)C2O)c1 (stereo partly drawn) [Example 16, 2-Cyano-5-ethynylpyridin-3-yl 3-deoxy-3-[4-(3,4,5-trifluorophenyl)-1H-1,2-pyrazol-1-yl]-1-thio-α-D-galactopyranoside]
3.4 | 9 |  |  |  | OCC1O[C@H](Sc2cncc(Cl)c2)C(O)C(n2cc(-c3ncc[nH]3)cn2)[C@H]1O (stereo partly drawn) [Example 23, 5-Chloropyridin-3-yl 3-deoxy-3-[4-(1H-imidazol-2-yl)-1H-1,2-pyrazol-1-yl]-1-thio-α-D-galactopyranoside]
30 | 0.014 |  |  |  | C#Cc1cncc(S[C@H]2OC(CO)[C@H](O)C(n3cc(-c4cc(F)c(Cl)c(F)c4)cn3)C2O)c1 (stereo partly drawn) [Example 7, 5-Ethynylpyridin-3-yl 3-[4-(4-chloro-3,5-difluorophenyl)-1H-1,2-pyrazol-1-yl]-3-deoxy-1-thio-α-D-galactopyranoside]
0.52 | 1.2 |  |  |  | OCC1O[C@H](Sc2cncc(Br)c2)C(O)C(n2cc(-c3nc(Cl)cs3)cn2)[C@H]1O (stereo partly drawn) [Example 28, 5-Bromopyridin-3-yl 3-[4-(4-chlorothiazol-2-yl)-1H-1,2-pyrazol-1-yl]-3-deoxy-1-thio-α-D-galactopyranoside]
51 | 0.45 |  |  |  | COC1C(n2ccc(-c3cc(F)c(F)c(F)c3)n2)[C@@H](O)C(CO)O[C@@H]1Sc1cncc(Cl)c1 (stereo partly drawn) [Example 38, 5-Chloropyridin-3-yl 3-deoxy-3-[3-(3,4,5-trifluorophenyl)-1H-1,2-pyrazol-1-yl]-2-O-methyl-1-thio-α-D-galactopyranoside]
0.59 | 1.5 |  |  |  | OCC1O[C@H](Sc2cncc(Cl)c2)C(O)C(n2cc(-c3nc(Cl)cs3)cn2)[C@H]1O (stereo partly drawn) [Example 27, 5-Chloropyridin-3-yl 3-[4-(4-chlorothiazol-2-yl)-1H-1,2-pyrazol-1-yl]-3-deoxy-1-thio-α-D-galactopyranoside]
0.14 | 3.4 |  |  |  | OCC1O[C@H](Sc2cncc(Cl)c2)C(O)C(n2cc(-c3csc(O)n3)cn2)[C@H]1O (stereo partly drawn) [Example 31, 5-Chloropyridin-3-yl 3-deoxy-3-[4-(2-hydroxythiazol-4-yl)-1H-1,2-pyrazol-1-yl]-1-thio-α-D-galactopyranoside]
0.51 | 1.1 |  |  |  | N#Cc1ncc(Cl)cc1S[C@H]1OC(CO)[C@H](O)C(n2cc(-c3nc(Cl)cs3)cn2)C1O (stereo partly drawn) [Example 30, 5-Chloro-2-cyanopyridin-3-yl 3-[4-(4-chlorothiazol-2-yl)-1H-1,2-pyrazol-1-yl]-3-deoxy-1-thio-α-D-galactopyranoside]
10.2 | 0.63 |  |  |  | OCC1O[C@H](Sc2cncc(Cl)c2)C(O)C(n2cc(-c3cc(F)ccn3)cn2)[C@H]1O (stereo partly drawn) [Example 20, 5-Chloropyridin-3-yl 3-deoxy-3-[4-(4-fluoropyridin-2-yl)-1H-1,2-pyrazol-1-yl]-1-thio-α-D-galactopyranoside]
1.3 | 9.6 |  |  |  | OCC1O[C@H](Sc2cncc(Cl)c2)C(O)C(n2cc(-c3cscn3)cn2)[C@H]1O (stereo partly drawn) [Example 25, 5-Chloropyridin-3-yl 3-deoxy-3-[4-(thiazol-4-yl)-1H-1,2-pyrazol-1-yl]-1-thio-α-D-galactopyranoside]
14.7 | 9.6 |  |  |  | Cn1ccc(-c2cnn(C3C(O)[C@@H](Sc4cncc(Cl)c4)OC(CO)[C@@H]3O)c2)n1 (stereo partly drawn) [Example 22, 5-Chloropyridin-3-yl 3-deoxy-3-[4-(1-methyl-1,2-pyrazol-3-yl)-1H-1,2-pyrazol-1-yl]-1-thio-α-D-galactopyranoside]
8.5 | 0.03 |  |  |  | COC1C(n2cc(-c3cc(F)c(F)c(F)c3)cn2)[C@@H](O)C(CO)O[C@@H]1Sc1cc(Cl)ccc1C#N (stereo partly drawn) [Example 45, 5-Chloro-2-cyanophenyl 3-deoxy-3-[4-(3,4,5-trifluorophenyl)-1H-1,2-pyrazol-1-yl]-2-O-methyl-1-thio-α-D-galactopyranoside]
0.49 | 1.5 |  |  |  | N#Cc1ccc(Cl)cc1S[C@H]1OC(CO)[C@H](O)C(n2cc(-c3nc(Cl)cs3)cn2)C1O (stereo partly drawn) [Example 29, 5-Chloro-2-cyanophenyl 3-[4-(4-chlorothiazol-2-yl)-1H-1,2-pyrazol-1-yl]-3-deoxy-1-thio-α-D-galactopyranoside]
> 100 | 0.3 |  |  |  | OC[C@H]1O[C@H](Sc2ccc(Cl)c(Cl)c2)[C@H](O)[C@@H](c2nc(-c3cc(F)c(F)c(F)c3)co2)[C@H]1O [Example 39, 3,4-Dichlorophenyl 3-deoxy-3-[4-(3,4,5-trifluorophenyl)-oxazol-2-yl]-1-thio-α-D-galactopyranoside]
12.7 | 0.067 |  |  |  | OCC1O[C@H](Sc2cncc(Cl)c2)C(O)C(n2cnc(-c3cc(F)c(F)c(F)c3)c2)[C@H]1O (stereo partly drawn) [Example 36, 5-Chloropyridin-3-yl 3-deoxy-3-[4-(3,4,5-trifluorophenyl)-1H-1,3-imidazol-1-yl]-1-thio-α-D-galactopyranoside]
5.1 | 0.013 |  |  |  | OCC1O[C@H](Sc2cc(Cl)cnc2N2CC(CO)(CO)C2)C(O)C(n2cc(-c3cc(F)c(F)c(F)c3)cn2)[C@H]1O (stereo partly drawn) [Example 37, 5-Chloro-[3,3-bis(hydroxymethyl)azetidin-1-yl]pyridin-3-yl 3-deoxy-3-[4-(3,4,5-trifluorophenyl)-1H-1,2-pyrazol-1-yl]-1-thio-α-D-galactopyranoside]
